# According to patent US10058545B2, “Method of treating pulmonary arterial hypertension” (Cipla Limited, priority 2016, dated 2018):
# Legend:
# [1] = tested on: rats with monocrotaline induced pulmonary arterial hypertension; test: Monocrotaline rat PAH efficacy model: terminal hemodynamics, heart/lung weights; conditions: for Body Weight / HR / HW/BW / Heart Weight / LV Weight / Lung Weight / MAP / Mean PAP / RV Weight / RV/BW / RV/LV + S (Fulton's Index) / Systolic PAP: Day 28 after MCT, Mean ± SEM
# Experimental: The studies were conducted for hemodynamic evaluation of cinitpride in anesthetized sprague dawley rats treated with monocrotaline (“MCT”) to induce pulmonary arterial hypertension. Sildenafil was used as an internal control to compare the effects of cinitapride.
# The effects of cinitapride were evaluated in rats with monocrotaline induced pulmonary arterial hypertension using sildenafil as standard care treatment. Male Sprague-Dawley rats were orally administered vehicle cinitapride (0.3 or 0.9 mg/kg total daily dose, divided into a BID regimen given every day for 28 days starting on Day 1), or sildenafil (30 mg/kg, administered twice daily) (n=10 in each group). Rats received a single injection of monocrotaline (60 mg/kg, s.c.) on Study Day 1. On the twenty-eighth day following monocrotaline dosing, the rats were anesthetized with ketamine/xylazine for terminal monitoring of pulmonary and systemic arterial pressures along with heart rate.
# Vehicle (0.5% Methylcellulose+0.2% Tween 80 in deionized water, Cinitapride (0.3 or 0.9 mg/kg total daily dose; Sildenafil (30 mg/kg, administered twice daily)
# (§1) Male Sprague-Dawley rats in groups 2 to 5 were administered […] of body weight of Monocrotaline in DMSO subcutaneously to induce PAH on day 1. The DMSO group (Group 1) received a single dose of DMSO subcutaneously on day 1. The vehicle group received 5 ml of vehicle every morning. The cinitapride as well as sildenafil groups were orally administered cinitapride (0.3 or 0.9 mg/kg total daily dose, divided into a BID regimen given every day for 28 days starting on Day 1), or sildenafil (30 mg/kg, administered twice daily). On the twenty-eighth day after monocrotaline dosing, the rats were anesthetized with ketamine/xylazine for terminal monitoring of pulmonary and systemic arterial pressures along with heart rate.
# [2] = tested on: pulmonary arterioles of rats with monocrotaline induced pulmonary arterial hypertension; test: Monocrotaline rat PAH model: lung histopathology (smooth muscle hypertrophy, muscularization of pulmonary arterioles); type: in vivo, Sprague-Dawley rats; conditions: for mean hypertrophy score (smooth muscle hypertrophy of small arterioles): score 0 (normal) to 4 (marked), monocrotaline+vehicle 2.7
# Experimental: as §1
# Later the animals were sacrificed and histopathological evaluation was performed to assess pulmonary arterioles for smooth muscle hypertrophy & muscularization of pulmonary arterioles.
# The elastin/eosin stained lung section were examined microscopically and histopathological findings were recorded as smooth muscle hypertrophy of small arterioles and muscularization of pulmonary arterioles. The finding were recorded as 0 (normal), 1 (minimal), 2 (mild), 3 (moderate) or 4 (marked). Scoring smooth muscle hypertrophy in small pulmonary arterioles was based on the thickness of muscular wall & extent of finding (apparent no. of arterioles affected).
# [3] = Cinitapride 0.3 mg/kg per day bid, oral
# [4] = Cinitapride 0.9 mg/kg per day bid, oral
# [5] = Sildenafil 60 mg/kg per day bid, oral
smiles,measurement,setting,value
CCOc1cc(N)c([N+](=O)[O-])cc1C(=O)NC1CCN(CC2CC=CCC2)CC1 (centres unmarked) [Cinitapride],systolic pulmonary arterial pressure compared to the vehicle group,"[1]; 0.9 mg/kg/day cinitapride, after 28 days",reduction in systolic pulmonary arterial pressure
same,Body Weight,[1]; [3],0.32 ± 0.02 kg
same,HR,[1]; [3],299 ± 17 bpm
same,HW/BW,[1]; [3],3.71 ± 0.20
same,Heart Weight,[1]; [3],1.17 ± 0.05 g
same,LV Weight,[1]; [3],0.68 ± 0.04 g
same,Lung Weight,[1]; [3],2.36 ± 0.16 g
same,MAP,[1]; [3],77 ± 8 mmHg
same,Mean PAP,[1]; [3],43 ± 5 mmHg
same,RV Weight,[1]; [3],0.35 ± 0.02 g
same,RV/BW,[1]; [3],1.14 ± 0.10
same,RV/LV + S (Fulton's Index),[1]; [3],0.53 ± 0.04
same,Systolic PAP,[1]; [3],55 ± 8 mmHg
same,Body Weight,[1]; [4],0.32 ± 0.02 kg
same,HR,[1]; [4],295 ± 9 bpm
same,HW/BW,[1]; [4],3.52 ± 0.16
same,Heart Weight,[1]; [4],1.10 ± 0.05 g
same,LV Weight,[1]; [4],0.70 ± 0.03 g
same,Lung Weight,[1]; [4],2.30 ± 0.20 g
same,MAP,[1]; [4],76 ± 2 mmHg
same,Mean PAP,[1]; [4],37 ± 3 mmHg
same,RV Weight,[1]; [4],0.31 ± 0.03 g
same,RV/BW,[1]; [4],1.01 ± 0.11
same,RV/LV + S (Fulton's Index),[1]; [4],0.45 ± 0.04
same,Systolic PAP,[1]; [4],45 ± 4 mmHg
same,"effect on right ventricular hypertrophy (RV/LV+S, Fulton's Index) compared to vehicle",[1]; cinitapride 0.3 mg/kg/day,−10%
same,"effect on right ventricular hypertrophy (RV/LV+S, Fulton's Index) compared to vehicle",[1]; cinitapride 0.9 mg/kg/day,−25%
same,"efficacy at reducing monocrotaline-induced pulmonary hypertension (overall mortality, pulmonary hemodynamics, right ventricular hypertrophy) versus sildenafil","[1]; cinitapride 0.9 mg/kg/day given BID, oral",superior to the positive control
same,"decrease in hypertrophy, RV (wt) corrected by body weight","[1]; cinitapride highest dose, p<0.05",33%
same,activity in controlling or reducing PAH relative to Sildenafil,"[1]; rat, in vivo",comparable
same,heart rate or mean arterial pressure compared to vehicle,[1]; rats treated with cinitapride,No substantive differences
same,"completely muscularized arterioles, group mean percentage","[2]; 0.45 mg/kg cinitapride twice daily following MCT, vehicle following MCT 52.1%",38.2%
same,vascular smooth muscle hypertrophy compared to control group (FIG. 4),[2]; cinitapride 0.15 mg/kg after monocrotaline induction,mild vascular smooth muscle hypertrophy
same,presence of smooth muscle hypertrophy in small arterioles,[2]; cinitapride 0.15 mg/kg and 0.45 mg/kg twice daily following Monocrotaline,substantially decreased
same,vascular smooth muscle hypertrophy compared to control group (FIG. 5),[2]; cinitapride 0.45 mg/kg after monocrotaline induction,mild vascular smooth muscle hypertrophy
same,mean hypertrophy score (smooth muscle hypertrophy of small arterioles),[2]; monocrotaline+cinitapride 0.15 bid,1.9
same,mean hypertrophy score (smooth muscle hypertrophy of small arterioles),[2]; monocrotaline+cinitapride 0.45 bid,2.1
CCCc1nn(C)c2c(=O)[nH]c(-c3cc(S(=O)(=O)N4CCN(C)CC4)ccc3OCC)nc12 [Sildenafil],Body Weight,[1]; [5],0.32 ± 0.01 kg
same,HR,[1]; [5],278 ± 21 bpm
same,HW/BW,[1]; [5],3.89 ± 0.17
same,Heart Weight,[1]; [5],1.24 ± 0.02 g
same,LV Weight,[1]; [5],0.74 ± 0.02 g
same,Lung Weight,[1]; [5],2.36 ± 0.13 g
same,MAP,[1]; [5],69 ± 5 mmHg
same,Mean PAP,[1]; [5],38 ± 6 mmHg
same,RV Weight,[1]; [5],0.38 ± 0.02 g
same,RV/BW,[1]; [5],1.19 ± 0.09
same,RV/LV + S (Fulton's Index),[1]; [5],0.51 ± 0.03
same,Systolic PAP,[1]; [5],46 ± 7 mmHg
same,hypertrophic index (RV wt corrected by body weight),[1]; sildenafil,decrease
